In general, IC50 refers to the point on the concentration scale where inhibition reaches its midpoint.

This note sets out measurements from ChEMBL document CHEMBL1681719, “Synthesis and evaluation of 1,5-diaryl-substituted tetrazoles as novel selective cyclooxygenase-2 (COX-2) inhibitors” (Bioorg Med Chem Lett, 2011).

The target in assay [1] is T1, Prostaglandin G/H synthase 1 (Ovis aries, UniProt P05979).
T1 sequence (P05979 whole entry): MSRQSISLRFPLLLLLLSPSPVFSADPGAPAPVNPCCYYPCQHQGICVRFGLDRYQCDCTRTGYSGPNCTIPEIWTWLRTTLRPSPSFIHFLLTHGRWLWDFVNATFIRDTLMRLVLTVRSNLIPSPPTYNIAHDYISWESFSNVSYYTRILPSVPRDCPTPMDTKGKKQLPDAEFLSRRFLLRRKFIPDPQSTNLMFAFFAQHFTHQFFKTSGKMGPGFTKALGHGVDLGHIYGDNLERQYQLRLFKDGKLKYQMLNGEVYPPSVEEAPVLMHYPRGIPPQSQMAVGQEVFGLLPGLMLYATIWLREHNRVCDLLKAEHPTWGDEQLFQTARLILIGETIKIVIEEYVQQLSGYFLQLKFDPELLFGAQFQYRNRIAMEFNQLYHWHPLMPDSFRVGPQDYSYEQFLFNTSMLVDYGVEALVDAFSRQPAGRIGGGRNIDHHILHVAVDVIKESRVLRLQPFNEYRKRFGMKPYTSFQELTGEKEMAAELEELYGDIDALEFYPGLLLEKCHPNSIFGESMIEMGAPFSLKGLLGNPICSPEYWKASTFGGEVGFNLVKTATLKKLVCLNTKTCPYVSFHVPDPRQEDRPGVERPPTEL
In words: Inhibition of ovine COX-1 by fluorescence assay.

In assay [2] the target is T2, Prostaglandin G/H synthase 2 (Homo sapiens, UniProt P35354).
T2 sequence (P35354 whole entry): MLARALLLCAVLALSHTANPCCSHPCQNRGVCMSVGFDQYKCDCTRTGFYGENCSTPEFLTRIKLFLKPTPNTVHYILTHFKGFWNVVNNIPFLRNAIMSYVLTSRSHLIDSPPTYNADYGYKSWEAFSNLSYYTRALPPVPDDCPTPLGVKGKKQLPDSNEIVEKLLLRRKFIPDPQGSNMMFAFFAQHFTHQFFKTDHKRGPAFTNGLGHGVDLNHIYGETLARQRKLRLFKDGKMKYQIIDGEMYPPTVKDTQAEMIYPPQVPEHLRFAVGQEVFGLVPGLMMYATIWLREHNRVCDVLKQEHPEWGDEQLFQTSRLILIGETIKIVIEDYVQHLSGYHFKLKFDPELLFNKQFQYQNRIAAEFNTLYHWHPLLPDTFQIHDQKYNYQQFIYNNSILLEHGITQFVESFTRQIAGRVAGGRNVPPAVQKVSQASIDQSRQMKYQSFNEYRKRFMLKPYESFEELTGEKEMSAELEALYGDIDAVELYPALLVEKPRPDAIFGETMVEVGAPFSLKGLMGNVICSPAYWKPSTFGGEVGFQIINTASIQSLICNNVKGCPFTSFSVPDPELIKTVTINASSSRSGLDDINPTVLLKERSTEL
The experiment in a line: Inhibition of human recombinant COX-2 by fluorescence assay.

Assay [3] is described as follows: Selectivity index ratio of IC50 for ovine COX-1 to IC50 for human recombinant COX-2.

Regarding `CS(=O)(=O)c1ccc(-c2nnnn2-c2ccc(F)cc2)cc1`, the IC50 is 640 µM in assay [1] and 2.7 µM in assay [2]. The Ratio IC50 in assay [3] is 237.
For `CS(=O)(=O)c1ccc(-c2nnnn2-c2ccccc2)cc1`, in that order: 3700 µM, 200 µM and 18.5.
With `Cc1ccc(-n2nnnc2-c2ccc(S(C)(=O)=O)cc2)cc1`, the IC50 turned out to be 8100 µM in assay [1] and 45 µM in assay [2]. Also, the Ratio IC50 in assay [3] worked out at 180.
For `CS(=O)(=O)c1ccc(-c2nnnn2-c2ccc(Cl)cc2)cc1`, in that order: 500 µM, 110 µM and 4.5.
For `COc1ccc(-n2nnnc2-c2ccc(S(C)(=O)=O)cc2)cc1` the same measures were 420 µM, 2 µM and 210.
